In patent publication US10219516B2, “Molecules having pesticidal utility, and intermediates, compositions, and processes, related thereto” (priority 2015, dated 2019):

Assays:
Format in all cases: in vivo
[1] = test system: Beet Armyworm (Spodoptera exigua, LAPHEG); experiment: Bioassay on Beet Armyworm (BAW), 128-well diet tray assay; settings: Species BAW (Beet Armyworm), read-out: BAW (Biological Results, rating)
In short: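 Second instar larvae were exposed to diet treated at 50 μg/cm^2 for five to seven days at 25° C.; mortality was averaged over eight wells.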

[2] = test system: Cabbage Looper (Trichoplusia ni, TRIPNI); experiment: Bioassay on Cabbage Looper (CL), 128-well diet tray assay; settings: Trichoplusia ni; Species CL (Cabbage Looper); read-out: CL (Biological Results, rating)
In short: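 Diet-incorporation-free surface assay: 50 μg/cm^2 compound in acetone-water (90:10), dried on diet; 1–5 2nd-instar larvae/well; 8 wells; vented cover; 25° C., 14:10 L:D, 5–7 d; % mortality averaged over wells.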

[3] = test system: Yellow Fever Mosquito (Aedes aegypti, AEDSAE); experiment: Bioassay on Yellow Fever Mosquito (YFM), 96-well plate larval assay; settings: Species YFM (Yellow Fever Mosquito)
In short: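 Aedes aegypti larvae (about 1 day old) in liver-powder water were added to plates dispensed from DMSO master plates (4000 ppm stock) diluted with 90:10 water/acetone; six replicate plates per master. Lidded plates were held at room temperature for 3 days, then each well was scored for mortality.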

Compound | pest or weed control at 50 µg/cm2 [1] [%] | pest or weed control at 50 µg/cm2 [2] [%] | YFM (Biological Results, rating) [3]
O=C(Nc1ccc(F)cc1F)c1cc(NC(=O)[C@@H]2[C@@H](c3ccc(Cl)c(Cl)c3)C2(Cl)Cl)ccc1Cl [F210, 2-Chloro-5-((1S,3S)-2,2-dichloro-3-(3,4-dichlorophenyl)cyclopropane-1-carboxamido)-N-(2,4-difluorophenyl)benzamide] | 50 to 100 | 50 to 100 | A (80-100)
O=C(Nc1ccc(F)cc1F)c1cc(NC(=O)[C@H]2[C@H](c3ccc(Cl)c(Cl)c3)C2(Cl)Cl)ccc1Cl [F211, 2-Chloro-5-((1R,3R)-2,2-dichloro-3-(3,4-dichlorophenyl)cyclopropane-1-carboxamido)-N-(2,4-difluorophenyl)benzamide] | 50 to 100 | 50 to 100 | A (80-100)
O=C(Nc1ccc(F)cc1)c1cc(NC(=O)C2C(c3cc(Cl)cc(Cl)c3)[C@@H]2Cl)ccc1Cl (stereo partly drawn) [F212, 2-Chloro-5-((2S)-2-chloro-3-(3,5-dichlorophenyl)cyclopropane-1-carboxamido)-N-(4-fluorophenyl)benzamide] | 50 to 100 | 50 to 100 | A (80-100)
O=C(Nc1ccc(F)cc1)c1cc(NC(=O)C2C(c3cc(Cl)cc(Cl)c3)[C@H]2Cl)ccc1Cl (stereo partly drawn) [F213, 2-Chloro-5-((2R)-2-chloro-3-(3,5-dichlorophenyl)cyclopropane-1-carboxamido)-N-(4-fluorophenyl)benzamide] | 50 to 100 | 50 to 100 | A (80-100)
O=C(Nc1ccc(F)cc1F)c1cc(NC(=O)C2C(c3cc(Cl)cc(Cl)c3)[C@@H]2Cl)ccc1Cl (stereo partly drawn) [F214, 2-Chloro-5-((2S)-2-chloro-3-(3,5-dichlorophenyl)cyclopropane-1-carboxamido)-N-(2,4-difluorophenyl)benzamide] | 50 to 100 | 50 to 100 | B (More than 0-Less than 80)
O=C(Nc1ccc(F)cc1F)c1cc(NC(=O)C2C(c3cc(Cl)cc(Cl)c3)[C@H]2Cl)ccc1Cl (stereo partly drawn) [F215, 2-Chloro-5-((2R)-2-chloro-3-(3,5-dichlorophenyl)cyclopropane-1-carboxamido)-N-(2,4-difluorophenyl)benzamide] | 50 to 100 | 50 to 100 | B (More than 0-Less than 80)
CC1(c2cc(Cl)cc(Cl)c2)C(C(=O)Nc2ccc(Cl)c(C(=O)Nc3ccc(F)cc3)c2)C1(Cl)Cl (stereo not drawn) [F251, 2-Chloro-5-trans-(2,2-dichloro-3-(3,5-dichlorophenyl)-3-methylcyclopropane-1-carboxamido)-N-(4-fluorophenyl)benzamide] | 50 to 100 | 50 to 100 | A (80-100)
CC1(c2cc(Cl)cc(Cl)c2)C(C(=O)Nc2ccc(Cl)c(C(=O)Nc3ccc(F)cc3F)c2)C1(Cl)Cl (stereo not drawn) [F252, 2-Chloro-5-trans-(2,2-dichloro-3-(3,5-dichlorophenyl)-3-methylcyclopropane-1-carboxamido)-N-(2,4-difluorophenyl)benzamide] | 50 to 100 | 50 to 100 | A (80-100)
Cc1cc(NC(=O)OC(C)(C)C)ccc1NC(=O)c1cc(NC(=O)[C@H]2[C@H](c3cc(Cl)cc(Cl)c3)C2(Cl)Cl)ccc1Cl [F275, tert-Butyl (4-(2-chloro-5-((1R,3R)-2,2-dichloro-3-(3,5-dichlorophenyl)cyclopropane-1-carboxamido)benzamido)-3-methylphenyl)carbamate] | 50 to 100 | 50 to 100 | A (80-100)
Cc1cc(NC(=O)OC(C)(C)C)ccc1NC(=O)c1cc(NC(=O)[C@H]2[C@H](c3ccc(Cl)c(Cl)c3)C2(Cl)Cl)ccc1Cl [F277, tert-Butyl (4-(2-chloro-5-((1R,3R)-2,2-dichloro-3-(3,4-dichlorophenyl)cyclopropane-1-carboxamido)benzamido)-3-methylphenyl)carbamate] | 50 to 100 | 50 to 100 | A (80-100)
O=C(Nc1ccc(F)cc1F)c1cc(NC(=O)[C@H]2[C@H](c3cc(Cl)c(Cl)c(Cl)c3)C2(Cl)Cl)ccc1Cl [F281, 2-Chloro-5-((1R,3R)-2,2-dichloro-3-(3,4,5-trichlorophenyl)cyclopropane-1-carboxamido)-N-(2,4-difluorophenyl)benzamide] | 50 to 100 | 50 to 100 | A (80-100)
O=C(Nc1ccc(F)cc1F)c1cc(NC(=O)[C@@H]2[C@@H](c3cc(Cl)c(Cl)c(Cl)c3)C2(Cl)Cl)ccc1Cl [F282, 2-Chloro-5-((1S,3S)-2,2-dichloro-3-(3,4,5-trichlorophenyl)cyclopropane-1-carboxamido)-N-(2,4-difluorophenyl)benzamide] | 50 to 100 | 50 to 100 | A (80-100)
Cc1cc(N)ccc1NC(=O)c1cc(NC(=O)[C@H]2[C@H](c3cc(Cl)cc(Cl)c3)C2(Cl)Cl)ccc1Cl [F283, N-(4-Amino-2-methylphenyl)-2-chloro-5-((1R,3R)-2,2-dichloro-3-(3,5-dichlorophenyl)cyclopropane-1-carboxamido)benzamide] | 50 to 100 | 50 to 100 | A (80-100)
Cc1cc(N)ccc1NC(=O)c1cc(NC(=O)[C@@H]2[C@@H](c3cc(Cl)cc(Cl)c3)C2(Cl)Cl)ccc1Cl [F284, N-(4-Amino-2-methylphenyl)-2-chloro-5-((1S,3S)-2,2-dichloro-3-(3,5-dichlorophenyl)cyclopropane-1-carboxamido)benzamide] | 50 to 100 | 50 to 100 | A (80-100)
Cc1cc(N)ccc1NC(=O)c1cc(NC(=O)[C@H]2[C@H](c3ccc(Cl)c(Cl)c3)C2(Cl)Cl)ccc1Cl [F285, N-(4-Amino-2-methylphenyl)-2-chloro-5-((1R,3R)-2,2-dichloro-3-(3,4-dichlorophenyl)cyclopropane-1-carboxamido)benzamide] | 50 to 100 | 50 to 100 | A (80-100)
Cc1cc(N)ccc1NC(=O)c1cc(NC(=O)[C@H]2[C@H](c3cc(Cl)c(Cl)c(Cl)c3)C2(Cl)Cl)ccc1Cl [F286, N-(4-Amino-2-methylphenyl)-2-chloro-5-((1R,3R)-2,2-dichloro-3-(3,4,5-trichlorophenyl)cyclopropane-1-carboxamido)benzamide] | 50 to 100 | 50 to 100 | A (80-100)
Cc1cc(NC(=O)OC(C)(C)C)ccc1NC(=O)c1cc(NC(=O)[C@H]2[C@H](c3ccc(F)c(Cl)c3)C2(Cl)Cl)ccc1Cl [F290, tert-Butyl (4-(2-chloro-5-((1R,3R)-2,2-dichloro-3-(3-chloro-4-fluorophenyl)cyclopropane-1-carboxamido)benzamido)-3-methylphenyl)carbamate] | 50 to 100 | 50 to 100 | A (80-100)
Cc1cc(N)ccc1NC(=O)c1cc(NC(=O)[C@H]2[C@H](c3ccc(F)c(Cl)c3)C2(Cl)Cl)ccc1Cl [F291, N-(4-Amino-2-methylphenyl)-2-chloro-5-((1R,3R)-2,2-dichloro-3-(3-chloro-4-fluorophenyl)cyclopropane-1-carboxamido)benzamide] | 50 to 100 | 50 to 100 | A (80-100)
O=C(Nc1ncc(F)cc1F)c1cc(NC(=O)[C@H]2[C@H](c3ccc(Cl)c(Cl)c3)C2(Cl)Cl)ccc1Cl [F310, 2-Chloro-5-((1R,3R)-2,2-dichloro-3-(3,4-dichlorophenyl)cyclopropane-1-carboxamido)-N-(3,5-difluoropyridin-2-yl)benzamide] | 50 to 100 | 50 to 100 | A (80-100)
O=C(Nc1ncc(F)cc1F)c1cc(NC(=O)[C@H]2[C@H](c3cc(Cl)c(Cl)c(Cl)c3)C2(Cl)Cl)ccc1Cl [F311, 2-Chloro-5-((1R,3R)-2,2-dichloro-3-(3,4,5-trichlorophenyl)cyclopropane-1-carboxamido)-N-(3,5-difluoropyridin-2-yl)benzamide] | 50 to 100 | 50 to 100 | A (80-100)
Nc1c(F)ccc(NC(=O)c2cc(NC(=O)[C@H]3[C@H](c4cc(Cl)cc(Cl)c4)C3(Cl)Cl)ccc2Cl)c1F [F313, N-(3-Amino-2,4-difluorophenyl)-2-chloro-5-((1R,3R)-2,2-dichloro-3-(3,5-dichlorophenyl)cyclopropane-1-carboxamido)benzamide] | 50 to 100 | 50 to 100 | A (80-100)
Nc1c(F)ccc(NC(=O)c2cc(NC(=O)[C@H]3[C@H](c4ccc(Cl)c(Cl)c4)C3(Cl)Cl)ccc2Cl)c1F [F314, N-(3-Amino-2,4-difluorophenyl)-2-chloro-5-((1R,3R)-2,2-dichloro-3-(3,4-dichlorophenyl)cyclopropane-1-carboxamido)benzamide] | 50 to 100 | 50 to 100 | A (80-100)
